What was measured:
[1] = tested on: Klebsiella pneumoniae ATCC 43816; assay: in vitro broth microdilution assay (MIC); type: cell-based; settings: ATCC43816
Method: This is advantageous because use of the compounds of the present approach as therapeutic agents will have less of an impact on the development of antibiotic resistance. For example, embodiments of the present approach were screened for antibiotic activity, using the in vitro broth microdilution assay. […] The assay conditions, described by the Clinical and Laboratory Standards Institute were used for preparation of the inoculum, growth medium, and end point reading. Test substance was dissolved in 100% DMSO, suspended completely by vortexing, diluted by 2-fold serial titrations in the same vehicle, for a total of 11 test concentrations. A 4 μL aliquot of each dilution was added to 196 μL of broth medium seeded with the organism suspension in wells of a 96 well plate (bacterial count: 2-8×10(5) colony forming units/mL final). The final volume was 200 μL in each well and the final DMSO concentration was 2 percent. Test concentrations were 0.1 to 100 μM. Following incubation, the test plates were visually examined and wells were scored for growth or complete growth inhibition to define the minimum inhibitory concentration. Each test substance was evaluated with replicates. Vehicle controls and an active reference agent were used as blank and positive controls. Note that MRSA represents methicillin-resistant Staphylococcus aureus, and VRE represents vancomycin resistant Enterococcus.

[2] = tested on: control MRC-5 cells (normal lung fibroblasts); assay: SRB assay, control (normal) MRC-5 cells; type: cell-based, human; settings: 10 μM
Method: (§1) For example, in one assay bromodeoxyuridine (5-bromo-2′-deoxyuridine), also known as BrdU, was used to induce senescence in a cell population. BrdU is an analog of the nucleoside thymidine commonly used to identify proliferating cells. BrdU induces controlled DNA damage, and drives cells towards senescence with high efficiency. In the BrdU assay, normal fibroblasts are subjected to prolonged culture (8-days) in the presence of BrdU at 100 μM to induce controlled DNA-damage and senescence. […] Senolytic activity was assessed using the sulforhodamine B assay, also known in the art as the SRB assay. This assay measures the amount of protein remaining attached to the tissue-culture dishes, and is a surrogate marker for cell viability.
(§2) FIG. 1 compares SRB assay results for different concentrations of Azithromycin (100 µM and 50 μM) and Compound [I] (100 μM and 50 μM) of the present approach, on both control MRC-5 cells and MRC-5 cells treated with BrdU. […] (labelled as “Azi-Gal” in FIG. 1) for another 5 days. After that, the SRB assay was performed to determine the effects of the drug on cell viability, using normal MRC-5 cells as the control. […] However, at 50 μM Azithromycin had no effect on either the control cells or senescent cells.
(§3) BrdU Assay: Cells were plated into 24-well plates. Next day, half of the plate was treated with 100 μM of BrdU while control wells were treated with vehicle only (DMSO) and incubated for 8 days at 37° C. in a 5% CO2 humidified atmosphere. After 8 days of BrdU treatment cells were treated with various test compounds or drugs (e.g., azithromycin, roxithromycin, telithromycin, erythromycin, etc.) for another 3-5 days. BrdU or vehicle treatments were continued during the drug treatments as well.
(§4) Sulphorhodamine B assay: After the incubation of the plates cell viability was measured by Sulphorhodamine B assay (SRB). The assay is based on the measurement of cellular protein contents. Cells were fixed with 10% Trichloroacetic acid (TCA) for 1 hour at […], and were dried overnight at room temperature. Then, plates were incubated with SRB for 30 min, washed twice with 1% acetic acid and air dried for at least 1 h. Finally, the protein-bound dye was dissolved in a 10 mM Tris, pH 8.8, solution and read using a plate reader at 540-nm.

[3] = tested on: MRC-5 cells treated with BrdU (senescent fibroblasts); assay: SRB assay, BrdU-treated (senescent) MRC-5 cells; type: cell-based, human
Method: as §1, §2, §3, §4

[4] = tested on: MRC-5 cells treated with BrdU; assay: xCELLigence assay, BrdU-treated MRC-5 cells; type: cell-based, human; settings: 50 μM, 5 days after 8 days BrdU, compared to the control
Source text: Senescent cells undergo the so-called senescence-associated secretory phenotype (SASP), which involves dramatic increases in the synthesis and secretion of proteins. The xCELLigence assay system was used to assess whether protein measurement assays under-estimate the senolytic activity of tested compounds. […] The real-time xCELLigence assay system thus compliments the more static SRB assay, and offers a more direct visualization of the potential senolytic effects of compounds during drug screening.
The xCELLigence assay was used to confirm senolytic activity for Compound [I]. MRC-5 fibroblasts were used for the assay. […] The data is expressed as the final cell index, the average±the standard error of mean, for the control cells, control cells treated with Compound [I], BrdU-treated control cells, and BrdU-treated fibroblasts subjected to Compound [I] at 50 μM, respectively. The senescent MRC-5 cells were pretreated with BrdU for 8 days to induce senescence, before exposure to Compound [I] for another 5 days. Compared to the control, Compound [I] treatment had no effect on the viability of normal fibroblasts, but killed over 90% of the BrdU-treated fibroblasts.
xCELLigence Assay System: xCELLigence RTCA System (ACEA Biosciences Inc.). […] This approach allows the quantification of the onset and kinetics of the cellular response. […]

normal MRC-5 cells = assay: Images of MRC-5 fibroblasts without BrdU pre-treatment; type: cell-based, human; settings: 50 μM
Method: FIGS. 3A and 3B are images of MRC-5 fibroblasts without and with BrdU pre-treatment, respectively, treated with Compound [I] at a concentration of 50 μM. […] The scale bar in the upper-right of FIGS. 3B and 3C represents 20 μm.
as §3

MCF-7 cells = assay: mammosphere formation assay (3D anchorage independent growth); type: cell-based, human
Method: The compounds disclosed herein may also be used as therapeutic agent to selectively eradicate CSCs for treating and/or preventing tumor recurrence and/or metastasis. […] This assay measures the amount of residual protein that adheres to tissue culture dishes and is a surrogate marker of cell viability.
3D Anchorage Independent Growth Assay: This assay is also referred to as the mammosphere formation assay. A single-cell suspension was prepared using enzymatic, and manual disaggregation (25-g needle). Then, cells were plated at a density of 500 cells/cm^2 in mammosphere medium (DMEM-F12+1X B-27 Plus Supplement+20 ng/ml EGF+Pen/Strep) under non-adherent conditions, in culture dishes pre-coated with (2-hydroxyethylmethacrylate) (poly-HEMA, Sigma Aldrich Inc.), called “mammosphere plates.” Cells were grown for 5 days and maintained in a humidified incubator at 37° C. After 5 days of culture, 3D-mammospheres >50 μm were counted using an eye piece (“graticule”), and the percentage of cells plated which formed spheres was calculated and is referred to as percent mammosphere formation, and was normalized to one (1=100% MFE). 3D mammosphere formation efficiency (MFE) was analyzed in both the ATP-low and ATP-high sub-populations of cells. All 3D mammosphere experiments were performed in triplicate, at least 3 times independently.

Structure (SMILES): CC[C@H]1OC(=O)[C@H](C)[C@@H](O[C@@H]2C[C@@](C)(OC)[C@@H](O)[C@H](C)O2)[C@H](C)[C@@H](O[C@@H]2O[C@H](C)C[C@H](N(C)C)[C@H]2OC(=O)OCc2ccc(O[C@@H]3O[C@H](COC(C)=O)[C@H](OC(C)=O)[C@H](OC(C)=O)[C@H]3OC(C)=O)c([N+](=O)[O-])c2)[C@](C)(O)C[C@@H](C)CN(C)[C@H](C)[C@@H](O)[C@]1(C)O [Compound [I], [(2R,3S,4S,5R,6S)-3,4,5-triacetoxy-6-[4-[[(2S,3R,4S,6R)-4-(dimethylamino)-2-[[(2R,3S,4R,5R,8R,10R,11R,12S,13S,14R)-2-ethyl-3,4,10-trihydroxy-13-[(2S,4R,5S,6S)-5-hydroxy-4-methoxy-4,6-dimethyl-tetrahydropyran-2-yl]oxy-3,5,6,8,10,12,14-heptamethyl-15-oxo-1-oxa-6-azacyclopentadec-11-yl]oxy]-6-methyl-tetrahydropyran-3-yl]oxycarbonyloxymethyl]-2-nitro-phenoxy]tetrahydropyran-2-yl]methyl acetate]
- MIC [1]: 50 µM
- effect on control cells (SRB) [2]: effective
- effect on senescent cells (SRB) ([3]; 10 μM): effective
- selectivity towards senescent MRC-5 fibroblasts (SRB) ([3]; 50 μM, senescent vs control MRC-5): exceptional selectivity
- BrdU-treated fibroblasts killed (xCELLigence final cell index) [4]: over 90%
- effect on normal MRC-5 cells (images) (normal MRC-5 cells): little effect
- inhibition of mammosphere formation (MCF-7 cells; 100 μM): nearly complete inhibition
- IC50 (MCF-7 cells; Homo sapiens, MCF7): 60 µM

Source: patent publication US20260109725A1, “MACROLIDE SENOLYTIC COMPOUNDS” (LUNELLA BIOTECH, INC., priority 2022, published 2026)
